Values quoted from earlier work in patent US20020103139A1, “Solid self-emulsifying controlled release drug delivery system composition for enhanced delivery of water insoluble phytosterols and other hydrophobic natural compounds for body weight and cholestrol level control” (priority 2000, published 2002).

How the values were obtained:
[1] = treated patients versus placebo
[2] = doses of 700 and 300 mg

Compound	average weight lost more than with placebo [1] [pounds]	difference in cholesterol reduction between doses [2]
CCNC(C)Cc1cccc(C(F)(F)F)c1 (stereo not drawn) [fenfluramine]	5	
CCN[C@@H](C)Cc1cccc(C(F)(F)F)c1 [dexfenfluramine]	5	
CC[C@H](CC[C@@H](C)[C@H]1CC[C@H]2[C@@H]3CC[C@H]4C[C@@H](O)CC[C@]4(C)[C@H]3CC[C@]12C)C(C)C [sitostanol]		No significant difference
